Reference: US20210101874A1, “MICROBIOCIDAL OXADIAZOLE DERIVATIVES” (SYNGENTA PARTICIPATIONS AG, priority 2017, published 2021)

Tests used:
[1] = system: Puccinia recondita f. sp. Tritici; experiment: Puccinia recondita f. sp. tritici / wheat / leaf disc preventative (brown rust); format: in vivo; details: foliar, 200 ppm in the applied formulation, wheat leaf segments cv. Kanzler, inoculated 1 day after application, compared to untreated, assessed 7 to 9 days after application, read-out: disease control
Experimental: Leaf disks or leaf segments of various plant species are cut from plants grown in a greenhouse. The cut leaf disks or segments are placed in multiwell plates (24-well format) onto water agar. The leaf disks are sprayed with a test solution before (preventative) or after (curative) inoculation. Compounds to be tested are prepared as DMSO solutions (max. 10 mg/ml) which are diluted to the appropriate concentration with 0.025% Tween20 just before spraying. The inoculated leaf disks or segments are incubated under defined conditions (temperature, relative humidity, light, etc.) according to the respective test system. A single evaluation of disease level is carried out 3 to 14 days after inoculation, depending on the pathosystem. Percent disease control relative to the untreated check leaf disks or segments is then calculated. Wheat leaf segments cv. Kanzler were placed on agar in multiwell plates (24-well format) and sprayed with the formulated test compound diluted in water. The leaf disks were inoculated with a spore suspension of the fungus 1 day after application. The inoculated leaf segments were incubated at 19° C. and 75% relative humidity (rh) under a light regime of 12 hours light/12 hours darkness in a climate cabinet and the activity of a compound was assessed as percent disease control compared to untreated when an appropriate level of disease damage appears in untreated check leaf segments (7 to 9 days after application). The following compounds at 200 ppm in the applied formulation give at least 80% disease control in this test when compared to untreated control leaf disks under the same conditions, which show extensive disease development.

[2] = system: Puccinia recondita f. sp. Tritici; experiment: Puccinia recondita f. sp. tritici / wheat / leaf disc curative (brown rust); format: in vivo; details: foliar, 200 ppm in the applied formulation, wheat leaf segments cv. Kanzler, applied 1 day after inoculation, compared to untreated, assessed 6 to 8 days after application, read-out: disease control
Experimental: Leaf disks or leaf segments of various plant species are cut from plants grown in a greenhouse. The cut leaf disks or segments are placed in multiwell plates (24-well format) onto water agar. The leaf disks are sprayed with a test solution before (preventative) or after (curative) inoculation. Compounds to be tested are prepared as DMSO solutions (max. 10 mg/ml) which are diluted to the appropriate concentration with 0.025% Tween20 just before spraying. The inoculated leaf disks or segments are incubated under defined conditions (temperature, relative humidity, light, etc.) according to the respective test system. A single evaluation of disease level is carried out 3 to 14 days after inoculation, depending on the pathosystem. Percent disease control relative to the untreated check leaf disks or segments is then calculated.
Wheat leaf segments cv. Kanzler are placed on agar in multiwell plates (24-well format). The leaf segments are then inoculated with a spore suspension of the fungus. Plates were stored in darkness at 19° C. and 75% relative humidity. The formulated test compound diluted in water was applied 1 day after inoculation. The leaf segments were incubated at 19° C. and 75% relative humidity under a light regime of 12 hours light/12 hours darkness in a climate cabinet and the activity of a compound was assessed as percent disease control compared to untreated when an appropriate level of disease damage appears in untreated check leaf segments (6 to 8 days after application).
The following compounds at 200 ppm in the applied formulation give at least 80% disease control in this test when compared to untreated control leaf disks under the same conditions, which show extensive disease development.

[3] = system: Glomerella lagenarium (Colletotrichum lagenarium); experiment: Glomerella lagenarium (Colletotrichum lagenarium) liquid culture / cucumber / preventative (anthracnose); format: cell-based; details: Colletotrichum orbiculare; 20 ppm in the applied formulation; conidia in PDB nutrient broth, 24° C.; 3 to 4 days after application; compared to untreated; read-out: disease control (inhibition of growth measured photometrically)
Experimental: Mycelia fragments or conidia suspensions of a fungus prepared either freshly from liquid cultures of the fungus or from cryogenic storage, are directly mixed into nutrient broth. DMSO solutions of the test compound (max. 10 mg/ml) are diluted with 0.025% Tween20 by a factor of 50 and 10 µl of this solution is pipetted into a microtiter plate (96-well format). The nutrient broth containing the fungal spores/mycelia fragments is then added to give an end concentration of the tested compound. The test plates are incubated in the dark at 24° C. and 96% relative humidity. The inhibition of fungal growth is determined photometrically after 2 to 7 days, depending on the pathosystem, and percent antifungal activity relative to the untreated check is calculated. Conidia of the fungus from cryogenic storage are directly mixed into nutrient broth (PDB—potato dextrose broth). After placing a (DMSO) solution of test compound into a microtiter plate (96-well format), the nutrient broth containing the fungal spores is added. The test plates are incubated at 24° C. and the inhibition of growth is measured photometrically 3 to 4 days after application. The following compounds at 20 ppm in the applied formulation give at least 80% disease control in this test when compared to untreated control under the same conditions, which show extensive disease development.

Q: `C/C=C/S(=O)(=O)N(C)Cc1ccc(-c2noc(C(F)(F)F)n2)cc1` [Compound 1.51, (E)-N-methyl-N-[[4-(5-(trifluoromethyl)-1,2,4-oxadiazol-3-yl]phenyl]methyl] prop-1-ene-1-sulfonamide] was tested. Which pest or weed control at 200 ppm [1] did it give?
A: ≥ 80%

Q: What about the pest or weed control at 200 ppm [2] of the same compound?
A: ≥ 80%

Q: What about the inhibition at 20 ppm [3] of the same compound?
A: ≥ 80%

Q: `COCCS(=O)(=O)N(C)Cc1ccc(-c2noc(C(F)(F)F)n2)cc1` [Compound 1.49, 2-methoxy-N-methyl-N-[[4-[5-(trifluoromethyl)-1,2,4-oxadiazol-3-yl]phenyl]methyl] ethanesulfonamide] was tested. Which pest or weed control at 200 ppm [1] did it give?
A: ≥ 80%

Q: And the pest or weed control at 200 ppm [2]?
A: ≥ 80%

Q: What about the inhibition at 20 ppm [3] of the same compound?
A: ≥ 80%

Q: Which results are given for `CN(Cc1ccc(-c2noc(C(F)(F)F)n2)cc1)S(=O)(=O)CC1CCOC1` (stereo not shown) [Compound 1.47, N-methyl-1-tetrahydrofuran-3-yl-N-[[4-[5-(trifluoromethyl)-1,2,4-oxadiazol-3-yl]phenyl]methyl] methanesulfonamide]?
A: pest or weed control at 200 ppm [1]: ≥ 80%; pest or weed control at 200 ppm [2]: ≥ 80%; inhibition at 20 ppm [3]: ≥ 80%

Q: With `CCCN(Cc1ccc(-c2noc(C(F)(F)F)n2)cc1)S(=O)(=O)N(C)C` [Compound 1.81, N-(dimethylsulfamoyl)-N-[[4-[5-(trifluoromethyl)-1,2,4-oxadiazol-3-yl]phenyl]methyl] propan-1-amine] as the compound, how does the pest or weed control at 200 ppm [2] read?
A: ≥ 80%

Q: And the inhibition at 20 ppm [3]?
A: ≥ 80%

Q: `CCCS(=O)(=O)NCc1ccc(-c2noc(C(F)(F)F)n2)cc1F` [Compound 2.6, N-[[2-fluoro-4-[5-(trifluoromethyl)-1,2,4-oxadiazol-3-yl]phenyl]methyl] propane-1-sulfonamide] was tested. Which pest or weed control at 200 ppm [1] did it give?
A: ≥ 80%

Q: What about the pest or weed control at 200 ppm [2] of the same compound?
A: ≥ 80%

Q: And the inhibition at 20 ppm [3]?
A: ≥ 80%

Q: For `CCN(Cc1ccc(-c2noc(C(F)(F)F)n2)cc1)S(=O)(=O)c1ccn(C)n1` [Compound 1.29, N-ethyl-1-methyl-N-[[4-[5-(trifluoromethyl)-1,2,4-oxadiazol-3-yl]phenyl]methyl] pyrazole-3-sulfonamide], which pest or weed control at 200 ppm [1] is on record?
A: ≥ 80%

Q: What about the pest or weed control at 200 ppm [2] of the same compound?
A: ≥ 80%

Q: What about the inhibition at 20 ppm [3] of the same compound?
A: ≥ 80%

Q: Which results are given for `O=S(=O)(CC1CCOC1)NCc1ccc(-c2noc(C(F)(F)F)n2)cc1F` (stereo not shown) [Compound 3.30, N-[[2-fluoro-4-[5-(trifluoromethyl)-1,2,4-oxadiazol-3-yl]phenyl]methyl]-1-tetrahydrofuran-3-yl-methanesulfonamide]?
A: pest or weed control at 200 ppm [1]: ≥ 80%; pest or weed control at 200 ppm [2]: ≥ 80%; inhibition at 20 ppm [3]: ≥ 80%

Q: `CCN(Cc1ccc(-c2noc(C(F)(F)F)n2)c(F)c1)S(=O)(=O)N(C)C` [Compound 1.106, N-(dimethylsulfamoyl)-N-[[3-fluoro-4-[5-(trifluoromethyl)-1,2,4-oxadiazol-3-yl]phenyl]methyl] ethanamine] was tested. Which pest or weed control at 200 ppm [1] did it give?
A: ≥ 80%

Q: What about the pest or weed control at 200 ppm [2] of the same compound?
A: ≥ 80%

Q: What about the inhibition at 20 ppm [3] of the same compound?
A: ≥ 80%

Q: Which results are given for `CC(C)N(Cc1ccc(-c2noc(C(F)(F)F)n2)cc1)S(=O)(=O)c1ccn(C)n1` [Compound 1.82, N-isopropyl-1-methyl-N-[[4-[5-(trifluoromethyl)-1,2,4-oxadiazol-3-yl]phenyl]methyl] pyrazole-3-sulfonamide]?
A: pest or weed control at 200 ppm [1]: ≥ 80%; pest or weed control at 200 ppm [2]: ≥ 80%; inhibition at 20 ppm [3]: ≥ 80%

Q: For `C#CCNS(=O)(=O)N(Cc1ccc(-c2noc(C(F)(F)F)n2)cc1)C1CC1` [Compound 1.20, 3-[4-[[cyclopropyl(prop-2-ynylsulfamoyl)amino]methyl]phenyl]-5-(trifluoromethyl)-1,2,4-oxadiazole], which pest or weed control at 200 ppm [2] is on record?
A: ≥ 80%

Q: What about the inhibition at 20 ppm [3] of the same compound?
A: ≥ 80%

Q: `CCCN(Cc1ccc(-c2noc(C(F)(F)F)n2)cc1)S(=O)(=O)C1CC1` [Compound 1.69, N-propyl-N-[[4-[5-(trifluoromethyl)-1,2,4-oxadiazol-3-yl]phenyl]methyl] cyclopropanesulfonamide] was tested. Which pest or weed control at 200 ppm [1] did it give?
A: ≥ 80%

Q: And the pest or weed control at 200 ppm [2]?
A: ≥ 80%

Q: And the inhibition at 20 ppm [3]?
A: ≥ 80%

Q: With `C/C=C/S(=O)(=O)N(Cc1ccc(-c2noc(C(F)(F)F)n2)cc1)C(C)C` [Compound 1.84, (E)-N-isopropyl-N-[[4-[5-(trifluoromethyl)-1,2,4-oxadiazol-3-yl]phenyl]methyl] prop-1-ene-1-sulfonamide] as the compound, how does the pest or weed control at 200 ppm [1] read?
A: ≥ 80%

Q: What about the pest or weed control at 200 ppm [2] of the same compound?
A: ≥ 80%

Q: What about the inhibition at 20 ppm [3] of the same compound?
A: ≥ 80%

Q: Which pest or weed control at 200 ppm [1] does the source give for `CS(=O)(=O)NCc1ccc(-c2noc(C(F)(F)F)n2)cc1F` [Compound 2.27, N-[[2-fluoro-4-[5-(trifluoromethyl)-1,2,4-oxadiazol-3-yl]phenyl]methyl] methanesulfon-amide] here?
A: ≥ 80%

Q: And the pest or weed control at 200 ppm [2]?
A: ≥ 80%

Q: What about the inhibition at 20 ppm [3] of the same compound?
A: ≥ 80%

Q: What does the source list for `CNS(=O)(=O)N(Cc1ccc(-c2noc(C(F)(F)F)n2)cc1)C(C)C` [Compound 1.87, 3-[4-[[isopropyl (methylsulfamoyl)amino]methyl]phenyl]-5-(trifluoromethyl)-1,2,4-oxadiazole]?
A: pest or weed control at 200 ppm [1]: ≥ 80%; pest or weed control at 200 ppm [2]: ≥ 80%; inhibition at 20 ppm [3]: ≥ 80%

Q: Which results are given for `CCN(Cc1ccc(-c2noc(C(F)(F)F)n2)cc1)S(C)(=O)=O` [Compound 1.62, N-ethyl-N-[[4-[5-(trifluoromethyl)-1,2,4-oxadiazol-3-yl]phenyl]methyl] methanesulfonamide]?
A: pest or weed control at 200 ppm [1]: ≥ 80%; pest or weed control at 200 ppm [2]: ≥ 80%; inhibition at 20 ppm [3]: ≥ 80%

Q: What does the source list for `CS(=O)(=O)NCc1ccc(-c2noc(C(F)(F)F)n2)cc1` [Compound 2.13, N-[[4-[5-(trifluoromethyl)-1,2,4-oxadiazol-3-yl]phenyl]methyl] methanesulfon-amide]?
A: pest or weed control at 200 ppm [1]: ≥ 80%; pest or weed control at 200 ppm [2]: ≥ 80%; inhibition at 20 ppm [3]: ≥ 80%

Q: `CC(C)N(Cc1ccc(-c2noc(C(F)(F)F)n2)cc1)S(=O)(=O)C1CC1` [Compound 1.98, N-isopropyl-N-[[4-[5-(trifluoromethyl)-1,2,4-oxadiazol-3-yl]phenyl]methyl] cyclopropanesulfonamide] was tested. Which pest or weed control at 200 ppm [1] did it give?
A: ≥ 80%

Q: And the pest or weed control at 200 ppm [2]?
A: ≥ 80%

Q: And the inhibition at 20 ppm [3]?
A: ≥ 80%

Q: `CCN(Cc1ccc(-c2noc(C(F)(F)F)n2)c(F)c1F)S(=O)(=O)N(C)C` [Compound 1.107, N-[[2,3-difluoro-4-[5-(trifluoromethyl)-1,2,4-oxadiazol-3-yl]phenyl]methyl]-N-(dimethylsulfamoyl) ethanamine] was tested. Which pest or weed control at 200 ppm [1] did it give?
A: ≥ 80%

Q: And the pest or weed control at 200 ppm [2]?
A: ≥ 80%

Q: What about the inhibition at 20 ppm [3] of the same compound?
A: ≥ 80%

Q: Which pest or weed control at 200 ppm [2] does the source give for `C=CCS(=O)(=O)N(CCC)Cc1ccc(-c2noc(C(F)(F)F)n2)cc1` [Compound 1.70, N-propyl-N-[[4-[5-(trifluoromethyl)-1,2,4-oxadiazol-3-yl]phenyl]methyl] prop-2-ene-1-sulfonamide] here?
A: ≥ 80%

Q: And the inhibition at 20 ppm [3]?
A: ≥ 80%

Q: For `CC(C)S(=O)(=O)NCc1ccc(-c2noc(C(F)(F)F)n2)cc1F` [Compound 2.21, N-[[2-fluoro-4-[5-(trifluoromethyl)-1,2,4-oxadiazol-3-yl]phenyl]methyl] propane-2-sulfonamide], which pest or weed control at 200 ppm [2] is on record?
A: ≥ 80%
